Measured values as given in EPA's ToxValDB 9.5.
Several values for one entry are separate records, joined by “and”; a condition that tells them apart may be missing. Identical values can stand only once.

Tests used:
Oryctolagus sp. = details: for LD50: acute
Rattus norvegicus [1] = details: for LD50 / LC50: acute
Mus musculus = details: for LD50: acute, injection
Rattus norvegicus [2] = details: subchronic, oral, gavage, M, Sprague-Dawley
[3] = reproduction developmental, duration: 2 weeks, inhalation, Sprague-Dawley

CC(C)COP(=S)([S-])OCC(C)C.CC(C)COP(=S)([S-])OCC(C)C.[Zn+2]
LD50 (Oryctolagus sp.; dermal, New Zealand): > 20000 mg/kg | LD50 (Rattus norvegicus [1]; oral, gavage, Wistar): 3600 mg/kg

CCC(C)OP(=S)([S-])OC(C)CC(C)C.CCC(C)OP(=S)([S-])OC(C)CC(C)C.[Zn+2] (stereo unspecified)
LD50 (Oryctolagus sp.; dermal, New Zealand): > 5000 mg/kg | LD50 (Rattus norvegicus [1]; oral, gavage, Sprague-Dawley): ≥ 2900 mg/kg and ≤ 3400 mg/kg

Cc1ccc([N+](=O)[O-])cc1C [1,2-Dimethyl-4-nitrobenzene]
LD50 (Oryctolagus sp.; dermal, occlusive, New Zealand): > 5700 mg/kg | LD50 (Rattus norvegicus [1]; oral, Wistar): 2640 mg/kg

O=[N+]([O-])c1ccc(Cl)cc1 [1-Chloro-4-nitrobenzene]
NOAEL (Oryctolagus sp.; developmental, duration: 13 hours, oral, gavage, New Zealand): 15 mg/kg-day | LD50 (Rattus norvegicus [1]; oral, gavage, Sprague-Dawley): 530 mg/kg | NOAEL (Rattus norvegicus [1]; developmental, duration: 14 days, oral, gavage, Sprague-Dawley): 15 mg/kg-day | NOAEL (Rattus norvegicus [1]; reproduction developmental, duration: 14 days, oral, gavage, F, Sprague-Dawley): < 5 mg/kg-day | NOAEL (Rattus norvegicus [1]; reproduction developmental, duration: 167 days, oral, gavage, Sprague-Dawley, generation: F0): 0.7 mg/kg-day | NOAEL (Rattus norvegicus [1]; reproduction developmental, duration: 167 days, oral, gavage, Sprague-Dawley, generation: F1): 5 mg/kg-day | NOAEL (Rattus norvegicus [1]; reproduction developmental, duration: 167 days, oral, gavage, Sprague-Dawley, generation: F2): 5 mg/kg-day

CCCCCCCCCCCCCCCCN.F [1-Hexadecanamine, hydrofluoride]
LOAEL (Oryctolagus sp.; reproduction developmental, duration: 13 days, oral, gavage, F, New Zealand): 1.2 mg/kg-day | NOAEL (Rattus norvegicus [1]; reproduction developmental, duration: 10 days, oral, gavage, F, Long-Evans): 30 mg/kg-day | NOAEL (Rattus norvegicus [1]; reproduction developmental, oral, gavage, Long-Evans, generation: F0): 6 mg/kg-day | NOAEL (Rattus norvegicus [1]; reproduction developmental, oral, gavage, Long-Evans, generation: F1): 30 mg/kg-day

c1ccc2sc(SSc3nc4ccccc4s3)nc2c1 [2,2'-Dithiobisbenzothiazole]
LD50 (Mus musculus; Intraperitoneal): 2250 mg/kg | LD50 (Mus musculus; intravenous): 180 mg/kg | NOAEL (Mus musculus; developmental, oral, N strain): 10 mg/kg-day | LD50 (Oryctolagus sp.; oral): 6200 mg/kg | LD50 (Rattus norvegicus [1]; injection, Intraperitoneal): 3000 mg/kg and 2600 mg/kg | NOAEL (% diet) (Rattus norvegicus [1]; developmental, duration: 22 days, oral, diet, Wistar): 1 | NOAEL (% diet) (Rattus norvegicus [1]; reproduction developmental, duration: 22 days, oral, diet, F, Wistar): 0.2 | NOAEL (Rattus norvegicus [1]; reproduction developmental, oral, Wistar, hybrid, generation: F1): 10 mg/kg-day | NOAEL (Rattus norvegicus [1]; short-term, duration: 22 days, oral, diet, F, Wistar): 127 mg/kg-day

Cc1cc(C)c(O)c(C)c1 [2,4,6-Trimethylphenol]
NOEL (Rattus norvegicus [2]; Clinical Observation: Salivation + Histopathology: Stomach/forestomach- Squamous cell metaplasia Stomach/forestomach- Edema Stomach/…): 10 mg/kg-day | LD50 (Oryctolagus sp.; dermal, New Zealand): > 2000 mg/kg | LD50 (Rattus norvegicus [1]; oral, gavage): > 2000 mg/kg | NOAEL (Rattus norvegicus [1]; reproduction developmental, duration: 4 weeks, oral, gavage, F, Sprague-Dawley): ≥ 200 mg/kg-day | NOAEL (Rattus norvegicus [1]; reproduction developmental, duration: 4 weeks, oral, gavage, Sprague-Dawley, generation: F0): ≥ 200 mg/kg-day | NOAEL (Rattus norvegicus [1]; reproduction developmental, duration: 4 weeks, oral, gavage, Sprague-Dawley, generation: F1): ≥ 200 mg/kg-day

CC(C)CC(=O)CC(C)CC(C)C (stereo unspecified) [2,6,8-Trimethyl-4-nonanone]
LD50 (Oryctolagus sp.; dermal, occlusive): 9030 mg/kg | LD50 (Rattus norvegicus [1]; oral, gavage): 8470 mg/kg | NOAEL (Rattus norvegicus [1]; reproduction developmental, oral, gavage, CD, generation: F1): 300 mg/kg-day | NOAEL (Rattus norvegicus [1]; reproduction developmental, oral, gavage, F, CD): 100 mg/kg-day

CC(=O)Oc1cccc(Oc2ccc(C(F)(F)F)cc2Cl)c1 [2-Chloro-1-(3-acetoxyphenoxy)-4-(trifluoromethyl)benzene]
LD50 (Oryctolagus sp.; dermal, occlusive, New Zealand): > 200 mg/kg | LC50 (Rattus norvegicus [1]; Inhalation, Wistar): > 4.13 µg/mL | LD50 (Rattus norvegicus [1]; oral, Crj:CD): > 500 mg/kg

CCCCCCCCc1ccc(Nc2ccc(CCCCCCCC)cc2)cc1 [4,4'-Dioctyldiphenylamine]
NOEL (Rattus norvegicus [2]; Hematology: PT increase(tendency) APTT increase): 25 mg/kg-day | LD50 (Oryctolagus sp.; dermal, occlusive, New Zealand): > 7940 mg/kg | LD50 (Rattus norvegicus [1]; oral, gavage, Sprague-Dawley): > 7940 mg/kg

CCCCCCCCCCCCCOC(=O)CCCCC(=O)OCCCCCCCCCCCCC [Bis(tridecyl) adipate]
LD50 (Oryctolagus sp.; dermal): > 2000 mg/kg | LD50 (Oryctolagus sp.; dermal, semiocclusive, New Zealand): > 5000 mg/kg | LC50 (Rattus norvegicus [1]; Inhalation, Sprague-Dawley): > 3.2 µg/mL | LD50 (Rattus norvegicus [1]; oral, Sherman Wistar): > 16000 mg/kg | LD50 (Rattus norvegicus [1]; oral, gavage, Wistar): > 15000 mg/kg | NOAEL (Rattus norvegicus [1]; reproduction developmental, duration: 19 days, dermal, Sprague-Dawley): 800 mg/kg-day | NOAEL (Rattus norvegicus [1]; subchronic, duration: 13 weeks, dermal, Sprague-Dawley): 800 mg/kg-day

CCCCOC(=O)CC [Butyl propionate]
LD50 (Oryctolagus sp.; dermal, occlusive, New Zealand): > 14000 mg/kg | LD50 (Oryctolagus sp.; dermal, occlusive, albino): > 14000 mg/kg | LD50 (Rattus norvegicus [1]; dermal, occlusive, Fischer 344): > 2000 mg/kg | LD50 (Rattus norvegicus [1]; oral, gavage, Fischer 344): > 5000 mg/kg | LC50 (Rattus norvegicus [1]; oral, gavage, Sprague-Dawley): 12300 mg/kg | LD50 (Rattus norvegicus [1]; oral, gavage, Sprague-Dawley): 11000 mg/kg | LD50 (Rattus norvegicus [1]; oral, gavage, Wistar): > 14000 mg/kg | NOAEL (Rattus norvegicus [1]; developmental, duration: 10 days, inhalation, Sprague-Dawley): ≥ 10600 mg/m3 | LOAEL (Rattus norvegicus [1]; [3]): 13300 mg/m3 | NOAEL (Rattus norvegicus [1]; [3]): 2660 mg/m3 | LOAEL (Rattus norvegicus [1]; reproduction developmental, duration: 13 weeks, inhalation, Sprague-Dawley): 3990 mg/m3 | LOAEL (Rattus norvegicus [1]; short-term, duration: 11 days, inhalation, Fischer 344): 4260 mg/m3
